Test results taken from US8927563B2, “Kinase inhibitor” (Respivert Limited, priority 2013, dated 2015).

Tests used:
p38 MAPKα [1] = target: T1, p38 MAPKα (Homo sapiens (Human), UniProt Q16539); experiment: Phosphoflow assay, cellular p38 MAPKα inhibition in Jurkat cells; assay type: cell-based; details: H2O2 stimulated, read-out: IC50 Values, phospho-p38 MAPKα (converted)
Experimental: Jurkat T cells were cultured in starve medium (RPMI 1640+5% FBS) for 24 h prior to the experiment. Cells were harvested and resuspended at 10×10^6 cells/mL in starve medium and then plated into round-bottomed 96 well plates at 1×10^6 cells/well. Serial dilutions of test compound were added (1% final DMSO concentration) for 2 h prior to stimulation. Following pre-incubation with compound, cells were stimulated with H2O2 (0.05% final) for 5 min. The reaction was stopped by centrifugation at 2000 rpm (3 min, 4° C.), then the supernatant was removed and 100 μL of cold fix/perm solution (BD Fix/Perm kit #554714) added. Plates were incubated for 20 min at 4° C. before centrifugation and washing with supplied 1× wash medium (BD Fix/Perm kit #554714). Cells were stained for either phospho-p38α (T180/182), supplied by Cell Signalling Technology (9211s), or phospho-Lck (Y394), supplied by R&D (MAB7500). Antibodies were diluted to 5 μg/mL (R&D) or 1:200 (Cell Signalling Technology) in wash medium, before being incubated 1 h at 4° C. in the dark. Following 3 repeat washes with ice cold wash buffer, secondary antibody (anti-rabbit-FITC #F1362 or anti-mouse-FITC #F2883, both from Sigma) was added at a dilution of 1:1000 and incubated for 1 h at 4° C. in the dark. […] Cells were analysed by flow cytometry using BD Accuri C6.

Syk = Syk (Homo sapiens (Human), UniProt P43405); experiment: KINOMEscan dissociation constant, Syk; assay type: binding
Experimental: (§1) Kinase enzyme binding activities of compounds disclosed herein may be determined using a proprietary assay which measures active site-directed competition binding to an immobilized ligand (Fabian, M. A. et al., Nature Biotechnol., 2005, 23:329-336). These assays may be conducted by DiscoverX (formerly Ambit; San Diego, Calif.). The percentage inhibition produced by incubation with a test compound may be calculated relative to the non-inhibited control.

Lck = Lck (Homo sapiens (Human), UniProt P06239); experiment: KINOMEscan dissociation constant, Lck; assay type: binding
Lck, sequence (P06239 whole entry): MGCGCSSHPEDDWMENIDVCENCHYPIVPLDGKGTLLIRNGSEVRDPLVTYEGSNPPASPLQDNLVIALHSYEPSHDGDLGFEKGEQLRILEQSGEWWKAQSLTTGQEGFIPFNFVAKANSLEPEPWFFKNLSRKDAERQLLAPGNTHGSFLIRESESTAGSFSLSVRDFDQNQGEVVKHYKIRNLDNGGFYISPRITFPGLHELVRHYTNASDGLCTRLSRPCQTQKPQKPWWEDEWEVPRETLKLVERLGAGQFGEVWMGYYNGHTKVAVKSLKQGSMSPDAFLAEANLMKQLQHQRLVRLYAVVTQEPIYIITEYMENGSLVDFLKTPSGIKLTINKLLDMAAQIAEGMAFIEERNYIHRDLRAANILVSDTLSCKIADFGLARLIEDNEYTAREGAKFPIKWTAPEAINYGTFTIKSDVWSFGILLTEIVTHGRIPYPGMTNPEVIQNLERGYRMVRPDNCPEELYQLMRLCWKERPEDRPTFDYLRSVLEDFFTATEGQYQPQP
Experimental: as §1

[2] = Plasma pharmacokinetics and total colon distribution after oral administration to mice; assay type: in vivo; details: male, C57BL/6, mouse, total colon, oral 5 mg/kg, vehicle B, read-out: Median total colon concentration
Experimental: (§2) Studies were conducted by Sai Life Sciences (Hinjewadi, Pune, India) to investigate the plasma pharmacokinetics and total colon tissue distribution of Compound I. In particular, pharmacokinetic studies were carried out in: • male C57BL/6 mice, following a single oral administration; and • male Wistar rats following a single intravenous or oral administration.

[3] = Human hepatocyte stability test; assay type: in vitro ADME; details: human hepatocytes
Experimental: (§3) Assessment of certain in vitro ADME (absorption, distribution, metabolism, and excretion) parameters for Compound I was conducted by BioFocus (Saffron Walden, UK). The results reveal that Compound I is cleared rapidly by human hepatocytes and that it has a reduced liability for time-dependent cytochrome P450 inhibition.

human hepatocytes = experiment: Human hepatocyte stability test; assay type: in vitro ADME
Experimental: as §3

B-Raf = B-Raf (Homo sapiens (Human), UniProt P15056); experiment: KINOMEscan binding of B-Raf to standard ligand
B-Raf, sequence (P15056 whole entry): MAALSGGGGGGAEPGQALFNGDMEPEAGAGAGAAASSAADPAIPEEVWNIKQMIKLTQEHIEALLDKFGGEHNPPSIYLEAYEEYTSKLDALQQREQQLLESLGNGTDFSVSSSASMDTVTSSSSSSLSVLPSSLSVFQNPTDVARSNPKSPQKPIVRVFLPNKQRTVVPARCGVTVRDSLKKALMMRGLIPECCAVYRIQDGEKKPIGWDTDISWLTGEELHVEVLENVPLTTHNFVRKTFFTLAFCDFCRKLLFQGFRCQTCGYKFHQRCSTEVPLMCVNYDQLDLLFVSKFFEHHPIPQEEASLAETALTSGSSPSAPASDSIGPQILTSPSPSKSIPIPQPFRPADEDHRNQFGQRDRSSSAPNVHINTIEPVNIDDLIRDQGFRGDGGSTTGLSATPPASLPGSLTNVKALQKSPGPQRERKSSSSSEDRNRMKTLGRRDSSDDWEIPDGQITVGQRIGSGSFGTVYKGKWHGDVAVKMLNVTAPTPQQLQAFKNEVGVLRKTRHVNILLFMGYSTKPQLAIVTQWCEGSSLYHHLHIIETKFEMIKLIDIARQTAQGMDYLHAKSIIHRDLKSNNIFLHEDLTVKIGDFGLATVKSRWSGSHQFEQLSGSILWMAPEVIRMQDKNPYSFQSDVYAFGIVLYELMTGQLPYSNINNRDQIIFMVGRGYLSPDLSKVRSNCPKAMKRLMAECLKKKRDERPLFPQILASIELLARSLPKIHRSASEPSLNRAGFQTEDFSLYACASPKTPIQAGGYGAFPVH
Experimental: as §1

hERG = hERG (Homo sapiens (Human), UniProt Q12809); experiment: hERG inhibition, IonWorks patch clamp electrophysiology; assay type: cell-based; details: human, 3 μM
hERG, sequence (Q12809 whole entry): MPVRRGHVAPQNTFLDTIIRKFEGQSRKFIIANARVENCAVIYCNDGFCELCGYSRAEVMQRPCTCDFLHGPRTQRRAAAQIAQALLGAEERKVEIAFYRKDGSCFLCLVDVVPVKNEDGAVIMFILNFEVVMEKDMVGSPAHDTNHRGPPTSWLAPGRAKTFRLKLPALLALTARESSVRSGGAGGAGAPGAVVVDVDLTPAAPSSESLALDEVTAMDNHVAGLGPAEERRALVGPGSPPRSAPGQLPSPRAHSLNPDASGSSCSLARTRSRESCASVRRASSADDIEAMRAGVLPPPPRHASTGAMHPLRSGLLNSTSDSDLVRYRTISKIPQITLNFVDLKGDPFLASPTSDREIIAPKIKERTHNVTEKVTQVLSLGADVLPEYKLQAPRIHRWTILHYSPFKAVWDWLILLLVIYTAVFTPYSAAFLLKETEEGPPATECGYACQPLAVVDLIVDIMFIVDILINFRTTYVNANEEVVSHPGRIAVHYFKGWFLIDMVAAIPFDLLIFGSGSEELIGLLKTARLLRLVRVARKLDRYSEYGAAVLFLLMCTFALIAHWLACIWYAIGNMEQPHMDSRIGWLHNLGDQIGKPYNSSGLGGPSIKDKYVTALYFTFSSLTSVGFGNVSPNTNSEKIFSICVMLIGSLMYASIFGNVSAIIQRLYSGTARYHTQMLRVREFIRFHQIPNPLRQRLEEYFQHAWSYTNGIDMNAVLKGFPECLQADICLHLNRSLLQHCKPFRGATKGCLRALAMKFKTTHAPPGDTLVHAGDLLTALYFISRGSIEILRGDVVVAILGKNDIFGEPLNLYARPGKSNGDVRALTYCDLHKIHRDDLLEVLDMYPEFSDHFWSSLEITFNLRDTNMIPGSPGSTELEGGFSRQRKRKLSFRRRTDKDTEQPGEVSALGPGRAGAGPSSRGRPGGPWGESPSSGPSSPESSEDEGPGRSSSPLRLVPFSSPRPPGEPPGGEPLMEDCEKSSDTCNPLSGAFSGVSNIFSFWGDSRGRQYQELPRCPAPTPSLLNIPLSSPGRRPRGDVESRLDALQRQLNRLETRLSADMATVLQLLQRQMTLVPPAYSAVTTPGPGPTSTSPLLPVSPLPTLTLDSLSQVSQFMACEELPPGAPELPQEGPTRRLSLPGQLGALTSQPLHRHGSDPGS
Experimental: (§4) Compound I was tested for inhibition of the human ether a go-go (hERG) channel using IonWorks™ patch clamp electrophysiology at Essen Bioscience (Welwyn Garden City, England).

[4] = target: human ether a go-go (hERG) channel (Homo sapiens (Human), UniProt Q12809); experiment: as above; assay type: cell-based
human ether a go-go (hERG) channel, sequence (Q12809 whole entry): as above
Experimental: as §4

[5] = Pharmacokinetics after oral administration to rats; assay type: in vivo; details: oral 5 mg/kg, vehicle B
Experimental: as §2

p38 MAPKα [6] = target: T1, p38 MAPKα; experiment: p38 MAPKα enzyme inhibition (Method 2), Z-LYTE FRET; assay type: biochemical
Experimental: The enzyme inhibitory activities of compounds disclosed herein are determined by FRET using synthetic peptides labelled with both donor and acceptor fluorophores (Z-LYTE, Invitrogen Ltd., Paisley, UK).
The inhibitory activities of test compounds against the p38 MAPKα isoform (MAPK14: Invitrogen) are evaluated indirectly by determining the level of activation/phosphorylation of the down-stream molecule, MAPKAP-K2. The p38 MAPKα protein (80 ng/mL, 2.5 μL) is mixed with the test compound (2.5 μL of either 4 μg/mL, 0.4 μg/mL, […] or 0.004 μg/mL) for 2 hr at RT. […] The mixture is incubated for 1 hr at RT. Development reagent (protease, 5 μL) is added for 1 hr prior to detection in a fluorescence microplate reader (Varioskan® Flash, ThermoFisher Scientific). […]
In all cases, the site-specific protease cleaves non-phosphorylated peptide only and eliminates the FRET signal. Phosphorylation levels of each reaction are calculated using the ratio of coumarin emission (donor) over fluorescein emission (acceptor), for which high ratios indicate high phosphorylation and low ratios indicate low phosphorylation levels.

T1 sequence (Q16539 whole entry, looked up): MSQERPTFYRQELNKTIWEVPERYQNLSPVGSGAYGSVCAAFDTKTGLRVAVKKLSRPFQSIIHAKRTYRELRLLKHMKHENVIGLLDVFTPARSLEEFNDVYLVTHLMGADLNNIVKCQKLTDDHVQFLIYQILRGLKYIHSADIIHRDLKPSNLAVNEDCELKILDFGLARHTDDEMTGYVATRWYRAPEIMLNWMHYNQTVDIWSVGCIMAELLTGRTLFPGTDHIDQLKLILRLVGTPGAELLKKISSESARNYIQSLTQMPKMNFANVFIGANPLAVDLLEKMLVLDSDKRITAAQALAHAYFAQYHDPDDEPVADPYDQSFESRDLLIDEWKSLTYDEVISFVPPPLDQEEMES

Work on `C#Cc1cc(Nc2nccc(Oc3ccc(NC(=O)Nc4cc(C(C)(C)C)cc(NS(C)(=O)=O)c4OC)c4ccccc34)n2)cc(C(=O)NCCOCCOCCOC)c1` [Compound I, 3-((4-((4-(3-(5-(tert-Butyl)-2-methoxy-3-(methylsulfonamido)phenyl)ureido)naphthalen-1-yl)oxy)pyrimidin-2-yl)amino)-5-ethynyl-N-(2-(2-(2-methoxyethoxy)ethoxy)ethyl)benzamide] yielded an IC50 (p38 MAPKα [1]) of 23.8 nM, a Kd (Syk) of 21 nM and a Kd (Lck) of 4.1 nM. The concentration at 1 h ([2]; 1 h) was 0 ng/g, the concentration at 2 h ([2]; 2 h) was 10.4 ng/g and the concentration at 4 h ([2]; 4 h) was 420 ng/g. It also gave a concentration at 6 h ([2]; 6 h) of 3080 ng/g, a concentration at 8 h ([2]; 8 h) of 1950 ng/g and a concentration at 12 h ([2]; 12 h) of 126 ng/g. The concentration at 24 h ([2]; 24 h) was 23 ng/g, the half-life [3] was 34 min and the hepatocyte CLint ([3]; read-out: Mean intrinsic clearance) was 41 µL/min/1e6 cells. The “Mean hepatic extraction ratio” value (human hepatocytes) was 0.85, the “effect on binding of B-Raf to its standard ligand” value (B-Raf) was “did not have any significant effect” and the inhibition at 3 µM (hERG) was -12 ± 4%. For the same molecule, the IC50 [4] was over 3000 nM, the Fpo [5] was 0.0% and the IC50 (p38 MAPKα [6]) was 224 nM.
